Measurements published in patent publication US11555210B2, “Microbe having increased tolerance to phenolic fermentation inhibitors” (University of Ottawa, priority 2018, dated 2023).

Columns and labels:
Format in all cases: cell-based, S. cerevisiae
[1] = tested on: wild-type yeast (BY4741); assay: ROS measurement by H2DCFDA fluorescence microscopy; details: 2 mM CA, 10 mM FA or 50 mM 4-HBA, 1 hour at 30° C.
Protocol: Measurement of ROS was performed as previously described (Kennedy et al., 2016, Sci Rep. 6, 19332). Briefly cells were incubated with 10 μM 2′,7′-dichlorodihydrofluorescein diacetate (H2DCFDA; Invitrogen cat. #D399) for 15 min in the dark. […] An aliquot of 5 μL was spotted onto glass slides and covered with a cover slip prior to imaging. All images were acquired using a Leica DMI 6000 florescent microscope (Leica Microsystems GmbH, Wetzler Germany), equipped with a Sutter DG4 light source (Sutter Instruments, California, USA), Ludl emission filter wheel with Chroma band pass emission filters (Ludl Electronic Products Ltd., NY, USA) and Hamamatsu Orca AG camera (Hamamatsu Photonics, Herrsching am Ammersee, Germany). Images were acquired at 0.2 μm steps across 6 μm using a 63× oil-immersion objective with a 1.4 numerical aperture. Analysis of H2DCFDA fluorescence was performed using Velocity Software V4 (Perkin Elmer). Image J software was used to quantify the H2DCFDA fluorescence signal in cells as described by Schneider et al (Schneider et al., 2012, Nature Methods, 9, 671-675) with a slight modification. Briefly, background fluorescence was subtracted from the images and the total fluorescence of all the cells in the image was measured and divided by the number of cells in the image. The images contained a minimum of 100 cells. The ratio of fluorescence per cell of treated cultures was divided by that of untreated cultures to eliminate background endogenous ROS production.

[2] = tested on: zwf1Δ strains; assay: ROS measurement by H2DCFDA fluorescence microscopy; details: 2 mM coniferyl aldehyde; ρ=0.012
Protocol: For all microscopy experiments overnight cultures of wild-type yeast grown at 30° C. were re-suspended at an OD600 of 0.1 in YPD medium and allowed to reach mid-log phase prior to imaging. Measurement of ROS was performed as previously described (Kennedy et al., 2016, Sci Rep. 6, 19332). Briefly cells were incubated with 10 μM 2′,7′-dichlorodihydrofluorescein diacetate (H2DCFDA; Invitrogen cat. #D399) for 15 min in the dark. Cells were washed in sterile PBS to remove traces of the dye after which they were re-suspended in YPD medium alone, or YPD supplemented with either 2 mM coniferyl aldehyde, 10 mM ferulic acid or 50 mM 4-hydroxybenzoic acid or hydrogen peroxide for 1 hour at 30° C. […]
Analysis of H2DCFDA fluorescence was performed using Velocity Software V4 (Perkin Elmer). Image J software was used to quantify the H2DCFDA fluorescence signal in cells as described by Schneider et al (Schneider et al., 2012, Nature Methods, 9, 671-675) with a slight modification. Briefly, background fluorescence was subtracted from the images and the total fluorescence of all the cells in the image was measured and divided by the number of cells in the image. […] The ratio of fluorescence per cell of treated cultures was divided by that of untreated cultures to eliminate background endogenous ROS production. […]

[3] = tested on: Zwf1-GFP; assay: Zwf1-GFP fluorescence microscopy
Protocol: For the microscopy studies, wild type cells expressing endogenously tagged Zwf1-GFP (YKB4825) were grown to mid log in YPD, prior to being washed and resuspended in YPD medium (Untreated) or YPD medium containing 2 mM coniferyl aldehyde (CA) for 120 min at 30° C. Images (FIG. 8A) are representative of three independent experiments where a minimum of 100 cells each were imaged. Scale bar represents 10 μm.

[4] = tested on: Zwf1-GFP; assay: co-localization of Zwf1-GFP with mitochondrial and ER markers
From the text: For co-localization studies, images were obtained as Z-stacks. Co-localization of the fluorescence signals were quantified using the IMARIS software 9.2.1 (Bitplane; http://www.bitplane.com) and a Manders' overlap co-efficient (Manders et al., 1993, Journal of Microscopy. 169, 375-382) was used to evaluate the fraction of RFP pixels (organelle marker) also positive for GFP pixels ([…]). The closer the value is to one, the higher the level of co-localization. The analysis was complemented by performing an object-based quantification where the percentage volume of ROS that localized to the mitochondria and endoplasmic reticulum was measured.
A strain expressing endogenously tagged Zwf1-GFP and either the mitochondrial marker CIT1-RFP or the ER marker SEC13-RFP were imaged as described in Example 5 both before and after 2 hours of treatment with 2 mM coniferyl aldehyde. […] Using the object-based analysis, the percentage volume of Zwf1 localizing to the mitochondria was measured as 47.10±8.04%. Likewise, co-localization of Zwf1-GFP to the ER marker Sec13-RFP was observed, though to a lesser extent, and confirmed by a quantitative analysis using a Mander's overlap co-efficient (0.22±0.07). (FIG. 11B).

[5] = 2 hours of treatment with 2 mM coniferyl aldehyde

Structure (SMILES): COc1cc(C=CC=O)ccc1O [coniferyl aldehyde, 4-hydroxy-3-methoxycinnamaldehyde]
- subcellular distribution of induced ROS [1]: formed punctate structures within the cell
- ROS signal in zwf1Δ compared to wild-type [2]: over two-fold induction
- Zwf1-GFP fluorescence signal/cell ([3]; 2 mM CA for 120 min at 30° C. (ρ=9.69E-5), ferulic acid 10 mM): significant increase
- Zwf1-GFP localization ([3]; 2 mM coniferyl aldehyde, 2 hours): punctuate localization
- Mander's overlap co-efficient, Zwf1-GFP with ER marker Sec13-RFP [4, 5]: 0.22±0.07
- Manders' overlap coefficient, Zwf1-GFP with mitochondrial marker CIT1-RFP [4, 5]: 0.34±0.07
- percentage volume of Zwf1 localizing to the mitochondria ([4]; 2 hours, 2 mM coniferyl aldehyde, object-based analysis): 47.10±8.04%
